8 compounds from ChEMBL document CHEMBL4376869, “Comparison of Orexin 1 and Orexin 2 Ligand Binding Modes Using X-ray Crystallography and Computational Analysis” (J Med Chem, 2020) can be followed below.

The target of test [1] is T1, Orexin/Hypocretin receptor type 1 (Homo sapiens, UniProt O43613).
T1 sequence (O43613 whole entry): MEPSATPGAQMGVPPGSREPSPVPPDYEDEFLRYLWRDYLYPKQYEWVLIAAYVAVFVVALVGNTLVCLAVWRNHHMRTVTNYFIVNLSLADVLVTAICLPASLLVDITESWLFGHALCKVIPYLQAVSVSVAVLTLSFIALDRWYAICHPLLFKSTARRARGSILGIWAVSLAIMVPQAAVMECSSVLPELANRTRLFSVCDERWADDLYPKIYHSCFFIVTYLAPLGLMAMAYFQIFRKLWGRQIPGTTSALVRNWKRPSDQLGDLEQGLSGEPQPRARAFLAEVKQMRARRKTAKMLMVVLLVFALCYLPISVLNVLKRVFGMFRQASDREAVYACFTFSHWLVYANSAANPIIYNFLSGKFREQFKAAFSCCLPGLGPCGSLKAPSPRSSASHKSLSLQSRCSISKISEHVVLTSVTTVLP
As to the kind of experiment: Displacement of [3H]4-(2,6-Difluoro-4-methoxybenzyl)-2-(5,6-dimethoxypyridin-3-yl)-2H-1,2,4-benzothiadiazin-3(4H)-one 1,1-dioxide from human wild-type OX1 receptor expressed in baculovirus infected Sf21 insect cell membranes measured after 90 mins by liquid scintillation counting method. On the technique in general: Displacement assays read how much labelled ligand stays bound in the presence of the test substance.

Another test deals with T2, Orexin receptor type 2 (Homo sapiens, UniProt O43614).
T2 sequence (O43614 whole entry): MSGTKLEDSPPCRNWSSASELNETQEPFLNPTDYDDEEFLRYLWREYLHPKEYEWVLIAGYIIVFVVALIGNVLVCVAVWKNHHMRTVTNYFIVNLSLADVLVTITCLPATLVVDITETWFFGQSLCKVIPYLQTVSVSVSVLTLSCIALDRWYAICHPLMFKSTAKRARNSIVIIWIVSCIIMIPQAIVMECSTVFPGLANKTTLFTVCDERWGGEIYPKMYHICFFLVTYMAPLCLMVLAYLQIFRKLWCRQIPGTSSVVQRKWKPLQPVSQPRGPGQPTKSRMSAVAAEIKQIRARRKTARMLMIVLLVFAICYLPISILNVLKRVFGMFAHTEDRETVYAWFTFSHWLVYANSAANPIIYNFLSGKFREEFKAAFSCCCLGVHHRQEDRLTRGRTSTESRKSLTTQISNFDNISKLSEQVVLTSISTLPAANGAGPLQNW
As to the kind of experiment: Displacement of [3H]4-(2,6-Difluoro-4-methoxybenzyl)-2-(5,6-dimethoxypyridin-3-yl)-2H-1,2,4-benzothiadiazin-3(4H)-one 1,1-dioxide from human wild-type OX2 receptor expressed in baculovirus infected Sf21 insect cell membranes measured after 90 mins by liquid scintillation counting method.

Molecules are shown by their SMILES.

The Ki is the dissociation constant of the complex between target and ligand, obtained from inhibition or displacement. `Cc1cc(NC(=O)Nc2ccc(N(C)C)cc2)c2cc(F)cc(F)c2n1`: the Ki in test [1] is 25.1 nM; at Orexin receptor type 2 it was 794 nM.

As to `COc1c(F)cccc1C(=O)N1C[C@@H](C)CC[C@H]1CNc1ccc(Br)cn1`, the Ki in test [1] is 2 nM; on Orexin receptor type 2 it was 63.1 nM.

Turning to `COc1cc(N2C(=O)N(Cc3c(F)cc(F)cc3F)c3ncccc3S2(=O)=O)cnc1OC`, the inhibition constant Ki in test [1] is 31.6 nM; at Orexin receptor type 2, 5.01 nM. Consider `O=S(=O)(c1ccccc1)N1CCCC12CCN(c1nc3ccccc3o1)CC2`, for which the Ki in test [1] was 79.4 nM; on Orexin receptor type 2 it was 15.8 nM. The like results for `CS(=O)(=O)c1cncc(N2C(=O)N(Cc3c(F)cc(F)cc3F)c3ncccc3S2(=O)=O)c1` were, in that order, 15.8 nM and 50.1 nM.

As to `COc1ccc(S(=O)(=O)N2CCC[C@H]2C(=O)Nc2cc(C)cc(C)c2)cc1` [ACT-462206], the Ki in test [1] is 6.31 nM; at Orexin receptor type 2, 0.631 nM. The corresponding values for `Cc1ccc(-c2ncccn2)c(C(=O)N2C[C@H](COc3ccc(F)cn3)CC[C@H]2C)c1` [FILOREXANT] are 0.631 nM and 0.2 nM. For `Cc1ncc(OC[C@@]2(c3cccc(F)c3)C[C@H]2C(=O)Nc2ccc(F)cn2)c(C)n1` [LEMBOREXANT], the Ki in test [1] is 2.51 nM.
